EP0324574B1, “Immunomodulating bryostatins” (priority 1988, dated 1989)

Key:
HL-60 cell line = settings: cited from earlier work
CTL (clone BM10-37) = assay: BLT-Esterase secretion assay in CTL clone; assay type: cell-based, murine
Description: (§1) This assay was performed as described in Takayama, H., et al. 1987. Antigen receptor triggered secretion of a trypsin-type esterase from cytotoxic T-lymphocytes. J. Immunol. 138:566. Briefly, effector cells were resuspended in the incubation media and incubated in triplicate in a 96-well plate (Immulon) at a concentration of 10⁵ cells per 100 µl. Phorbol myristate acetate ("PMA"), bryostatin 1 and bryostatin 2 were added at a final concentration of 10 ng/ml, the Ca⁺⁺ ionophore A23187 (free acid, Sigma C7522) was added at a final concentration of 0.5 µ g/ml. Total volume per well was adjusted to 200 µl. After 4 hours of incubation (37°C, 5% CO₂) the plates were spun (1 min., 200 xG) and 50 µl of the supernatant was harvested. Total BLT-E content was determined by solubilizing 10⁵ effector cells with 0.1% Triton X-100 in PBS.
Using a newly developed BLT-esterase secretion assay (See: Takayama, H., et al, supra). the ability of bryostatins 1 and 2 to activate cytolytic T-cells and to trigger the exocytosis of granules from CTL was tested. […] The combination of bryostatin and Ca⁺⁺-ionophore, however, greatly enhances the activation of CTL and induces significant secretion of granule located enzyme. […] However, when equimolar concentrations of PMA and bryostatin are used, the amount of secreted BLT-Esterase was similar in both combinations.
10⁵ CTL (clone BM10-37) was incubated in a 96-well plate and stimulated by the addition of a PMA (10ng/ml) and A23187 (0.5 µg/ml). Specific BLT-E secretion was measured as described above.

[1] = system: in vivo primed spleen cells; assay: generation of cytotoxicity in in vivo primed spleen cells (3-day culture, 51Cr-release assay); assay type: cell-based, B10 mice; settings: for development of CTL: 0.78nM present during incubation with 2 U/ml of rIL-2; for Index of Cell Recovery after incubation / Lytic Units Per 10⁷ cells: Media + rIL-2 (2U/ml) + 0.5 ng/ml PK-C activator, 3 days of incubation; for Lytic Units Per 10⁷ cells: P815 target cells
Description: (§2) Effector cells and ⁵¹Cr-labeled target cells were mixed and incubated in triplicate in a 96-well plate at different E/T ratios as described in Grabstein, K. 1980. Cell-mediated cytolytic responses. In Selected Methods in Cellular Immunology, B. B. Mishel and S. M. Shiigi, eds. (San Francisco, Freeman), pp. 124. The target cell number was 10⁴ cells per well when ⁵¹Cr-release assay was performed with the cytolytic T-cell clones. 5x10³ target cells per well were used when spleen cells and lymph node T-cells were studied as effectors. PMA, bryostatin 1 and bryostatin 2 were added at a final concentration ranging from 0.5 ng/ml to 100 ng/ml. Lectin- dependent cytotoxicity assay was performed by adding 10 µg/ml Con A to the mixture of CTL and ⁵¹Cr-labeled target cells. After incubation, the 96-well plate was centrifuged (1 min, 800 rpm, 4|C), all supernatants were harvested, radioactivity in the samples was counted and the mean values for each triplicate were determined. Percent of specific ⁵¹Cr release was calculated as 100X (a-b)/(t-b), where a is ⁵¹Cr release in the presence of CTL, b is spontaneous release from labeled target cells in the absence of CTL and t is the total number of cpm in the target cells.
B10 mice were immunized in vivo with 5-7.5x10⁶ irradiated P815 (H-2^d) cells. After 2-3 weeks animals were sacrificed and spleen cells were harvested. Red blood cells were lysed with hypotonic salt solution. Cells were incubated with 100 µl of 1/10 diluted M5/114.15.2 mAb containing ascites per 50x10⁶ cells. Following 30 min at room temperature, cells were washed and 100 µl of MAR 18.5 containing cell supernatant and 100 µl of rabbit complement per 50x10⁶ cells were added. Incubation at 37°C was allowed to proceed for 45 min., dead cells were removed by Hypaque-Ficoll centrifugation, washed and then incubated for three days in RPMI media/10% FCS with or without addition of IL-2, PMA or bryostatin as specified in legends of the drawing. Cytotoxicity against Ag-bearing target cells was measured in a ⁵¹Cr-release assay using P815 mastocytoma cells as targets.
In vivo primed B10 spleen cells were prepared as described above. After a 3-day culture either in the presence of either rIL-2 or rIL-2 plus protein kinase C activator, cytotoxicity was measured in a ⁵¹Cr release assay at the E/T ratios shown in FIG. 2 using 10⁴ P815 target cells/well. Results of cytotoxicity assay are shown for (A) cells cultured with rIL-2 alone (0 U/ml, 2 U/ml, 10 U/ml, 20 U/ml); (B) cells cultured with rIL-2 plus 0.5 ng/ml bryostatin 1; (C) cells cultured with rIL-2 plus 0.5 ng/ml bryostatin 2; and (D) cells cultured with rIL-2 plus 0.5 ng/ml PMA. […]

P388 in vitro cell line = settings: against the P388 in vitro cell line; cited from earlier work
[2] = system: murine P388 lymphocyte leukemia (PS) system; settings: 10-70 µg/kg injection dose levels; cited from earlier work
[3] = system: cytotoxic T-cell clone 2C; assay: Ag-nonspecific cytotoxicity of CTL clone 2C against EL-4 target cells (51Cr-release); assay type: cell-based, murine; settings: for lysis of EL-4 cells by CTL clone 2C: added to cell mixture, different E/T ratios
Description: as §2
No ⁵¹Cr-release was observed when ⁵¹Cr-labeled EL-4 cells ([…]) were mixed with the cytotoxic T-cell clone 2C (anti-H-2L^d) at different E/T ratios.
CTL 2C clone were incubated 4 hours with ⁵¹Cr-labeled syngeneic EL4 target cells at different E/T ratios in the presence of different concentrations of PMA or bryostatin 2.

small resting T-cells [4] = assay: development of cytotoxicity in small resting T-cells (lectin mediated 51Cr-release assay); assay type: cell-based, BALB/c mice
Description: as §2
(§3) Mesenteric lymph nodes were harvested from virus-free BALB/c mice 8-12 weeks of age. After two nylon wool column passages, Ia positive cells were subsequently lysed with the anti-Ia monoclonal antibody M5/114 plus Low-Tox-M rabbit complement as described above. Small dense resting T-cells were then separated by a modified discontinuous Percoll gradient procedure (See: Defranco, et al. 1982. Frequency of B-lymphocytes responsive to antiimmunoglobulin. J. Exp. Med. 155:1523.). Purified T-cells which were harvested in the 66-70% density band were considered to be small resting T-cells.
(§4) Small resting T-cells were purified from Balb/c mesenteric lymph nodes as described above. Purified cells were cultured for 3 days at a cell concentration of 10⁶ cells/ml either in media alone or in media plus different additions (rIL-2,100 U/ml; BSF-1, 2000 U/ml; bryostatin 1 or 2, 0.5 ng/ml). Cytotoxicity was measured in a 6 hour lectin mediated (Con A, 10 µg/ml) ⁵¹Cr-release assay. Results are shown for an E/T ratio of 100/l. For the determination of BLT-E content, 10⁶ cells of each of tested culture conditions were resuspended in 100 µl of media and solubilized with 1% Triton® X-100. Fifty l of cell suspension was used for measurement of BLT-esterase content as described above. Tested reagents when added alone to the cell cultures neither increased cellular BLT-esterase content nor induced cytotoxicity as shown in FIG. 7.

CTL OE4 cells = assay: Ag-specific cytotoxicity of CTL OE4 against P815 cells (51Cr-release); assay type: cell-based, murine; settings: 10 ng/ml, P815 cells with CTL OE4 at various E/T ratios
Description: Effector cells and ⁵¹Cr-labeled target cells were mixed and incubated in triplicate in a 96-well plate at different E/T ratios as described in Grabstein, K. 1980. Cell-mediated cytolytic responses. In Selected Methods in Cellular Immunology, B. B. Mishel and S. M. Shiigi, eds. (San Francisco, Freeman), pp. 124. The target cell number was 10⁴ cells per well when ⁵¹Cr-release assay was performed with the cytolytic T-cell clones. 5x10³ target cells per well were used when spleen cells and lymph node T-cells were studied as effectors. PMA, bryostatin 1 and bryostatin 2 were added at a final concentration ranging from 0.5 ng/ml to 100 ng/ml. Lectin- dependent cytotoxicity assay was performed by adding 10 µg/ml Con A to the mixture of CTL and ⁵¹Cr-labeled target cells. After incubation, the 96-well plate was centrifuged (1 min, 800 rpm, 4|C), all supernatants were harvested, radioactivity in the samples was counted and the mean values for each triplicate were determined. Percent of specific ⁵¹Cr release was calculated as 100X (a-b)/(t-b), where a is ⁵¹Cr release in the presence of CTL, b is spontaneous release from labeled target cells in the absence of CTL and t is the total number of cpm in the target cells. […]
OE4 CXTL cells were incubated with 10⁴ Cr labeled P815-cells at different E/T ratios and a ⁵¹Cr-release was measured after 4 hours incubation. […]

tumor promoters = assay: antagonism of tumor promoters
small resting T-cells [5] = assay: BLT-E content of small resting T-cells after 3-day culture; assay type: cell-based, BALB/c mice; settings: for expression of BLT-E activity in resting T-cells: added alone; for amount of BLT-E on a per cell basis: in combination with IL-4
Description: as §1, §3, §4

[6] = system: M531 murine ovary sarcoma system; set-up: dose or concentration left out as unconfirmed; settings: cited from earlier work
[7] = 10 ng/ml in combination with Ca⁺⁺ ionophore A23187 0.5 µg/ml
[8] = bryostatin and BSF-1 added together

Compound	induction of differentiation of the HL-60 cell line (HL-60 cell line)	BLT-E secretion (CTL (clone BM10-37); [7])	BLT-E secretion (CTL (clone BM10-37); added alone, 10 ng/ml)	development of CTL [1]	Index of Cell Recovery after incubation [1]	Lytic Units Per 10⁷ cells [1] [Lytic Units Per 10⁷ cells]	degree of cytotoxicity obtained with high concentrations of rIL-2 [1]	ED₅₀ (P388 in vitro cell line) [µg/mL]	life extension [2]	lysis of EL-4 cells by CTL clone 2C [3]	induction of cytotoxicity in small resting T-cells compared to PMA (small resting T-cells [4])	CTL development in resting T-cells (small resting T-cells [4]; added alone)	CTL development in resting T-cells (small resting T-cells [4]; [8])	Ag-specific ⁵¹Cr-release (CTL OE4 cells)	antagonism of tumor promoters (tumor promoters)	expression of BLT-E activity in resting T-cells (small resting T-cells [5])	amount of BLT-E on a per cell basis (small resting T-cells [5])	life extension [6]	level of ⁵¹Cr-release ([3]; 10 ng/ml, compared to same concentration of PMA or bryostatin 1, all E/T ratios (data not shown))	concentration causing maximal activity (lysis of EL-4 cells) ([3]; plateau, 10-fold higher concentration gave no higher cytotoxicity) [ng/mL]
CCCCCCCCCCCCCC(=O)O[C@@H]1[C@@H](C)[C@@]2(O)[C@@H](C=C(CO)C[C@]3(O)C(=O)C(C)=C[C@@H]23)[C@@H]2C(C)(C)[C@]12OC(C)=O [PMA, 4 β-phorbol-12-myristate 13-acetate, reference compound]	can be induced	greatly enhanced	slight BLT-Esterase secretion	equal in magnitude to that induced by 20 U/ml of IL-2	1.3	71	enhanced													
CCC/C=C/C=C/C(=O)O[C@H]1/C(=C/C(=O)OC)C[C@H]2C[C@H]([C@@H](C)O)OC(=O)C[C@H](O)C[C@@H]3C[C@H](OC(C)=O)C(C)(C)[C@](O)(C[C@@H]4C/C(=C/C(=O)OC)C[C@H](/C=C/C(C)(C)[C@]1(O)O2)O4)O3 [bryostatin 1]		slightly lower than that of PMA/Ca²⁺-ionophore	only a slight increase		0.9	40	enhanced	0.89	52-96%	caused the lysis of EL-4 cells in a dose dependent manner	less effective than PMA	failed to induce CTL development	synergized	slightly but consistently higher inhibition	antagonists of tumor promoters	Neither growth factors (IL-2, IL-4) nor bryostatin 1 and 2 alone induced expression	dramatically increased	31-68%		
bryostatin 2		always less effective	only a slight increase	equal in magnitude to that induced by 20 U/ml of IL-2	1.0	70	enhanced			caused the lysis of EL-4 cells in a dose dependent manner	consistently induced similar amounts of cytotoxicity	failed to induce CTL development	synergized	decreased	antagonists of tumor promoters	Neither growth factors (IL-2, IL-4) nor bryostatin 1 and 2 alone induced expression	dramatically increased		consistently lower	10
